Reference: the NIST ThermoML archive (doi:10.1021/je060107n)

Test: mn = molality of the nth substance listed, in mol/kg
Details: 101 kPa, Liquid; for speed of sound: Linear variable-path acoustic interferometer; for mass density: Pycnometric method; for viscosity: Capillary tube (Ostwald / Ubbelohde) method

O=[N+]([O-])[O-].O=[N+]([O-])[O-].[Mg+2] [magnesium nitrate] + O
Details	mass density [kg/m3]	speed of sound [m/s]	viscosity [mPa·s]
293.15 K, m1 = 2.131	–	1656.3	–
293.15 K, m1 = 2.493	–	1682.1	–
293.15 K, m1 = 2.793	–	1705.3	–
293.15 K, m1 = 3.118	–	1728.1	–
293.15 K, m1 = 3.17	–	1736.5	–
293.15 K, m1 = 3.501	–	1755.4	–
293.15 K, m1 = 3.757	–	1771.3	–
293.15 K, m1 = 4.051	–	1787.5	–
293.15 K, m1 = 4.285	–	1802.4	–
293.15 K, m1 = 4.403	–	1809.3	–
293.15 K, m1 = 4.883	–	1838.8	–
295.75 K, m1 = 0.3405	1032.9	–	–
296 K, m1 = 5.134	1404.4	–	–
297.5 K, m1 = 3.501	1299.9	–	–
297.65 K, m1 = 0.5931	1057.4	–	–
297.85 K, m1 = 4.285	1350.5	–	–
297.9 K, m1 = 3.17	1281.3	–	–
298.1 K, m1 = 2.493	1225.2	–	–
298.15 K, m1 = 0.0145	–	1498.3	0.9075
298.15 K, m1 = 0.0528	–	1500.5	0.9227
298.15 K, m1 = 0.2491	–	1514.9	0.9713
298.15 K, m1 = 0.3405	–	1519	–
298.15 K, m1 = 0.5931	–	–	1.079
298.15 K, m1 = 0.6173	–	1540.9	–
298.15 K, m1 = 0.896	–	1563	–
298.15 K, m1 = 0.9898	–	1570.8	1.232
298.15 K, m1 = 1.262	–	1590	1.366
298.15 K, m1 = 1.525	–	1611.1	–
298.15 K, m1 = 1.827	–	1637.3	1.662
298.15 K, m1 = 2.131	–	1660.5	1.842
298.15 K, m1 = 2.493	–	1685.3	–
298.15 K, m1 = 2.584	–	–	2.206
298.15 K, m1 = 2.793	–	1706.5	–
298.15 K, m1 = 3.096	–	–	2.665
298.15 K, m1 = 3.118	–	1728.8	–
298.15 K, m1 = 3.17	–	1736.6	–
298.15 K, m1 = 3.329	–	–	2.921
298.15 K, m1 = 3.501	–	1754.6	–
298.15 K, m1 = 3.704	–	–	3.367
298.15 K, m1 = 3.757	–	1774.2	–
298.15 K, m1 = 4.039	–	–	3.889
298.15 K, m1 = 4.051	–	1786.2	–
298.15 K, m1 = 4.285	–	1800.3	–
298.15 K, m1 = 4.403	–	1806.6	–
298.15 K, m1 = 4.728	–	–	5.349
298.15 K, m1 = 4.883	–	1831.8	–
298.15 K, m1 = 4.907	–	–	5.933
298.15 K, m1 = 5.134	–	1855.2	–
298.15 K, m1 = 5.282	–	–	7.034
298.2 K, m1 = 5.134	1402.9	–	–
298.5 K, m1 = 4.051	1333.6	–	–
299.15 K, m1 = 0.0145	998.05	–	–
299.35 K, m1 = 0.0528	1002.2	–	–
299.6 K, m1 = 0.3405	1031.8	–	–
299.75 K, m1 = 2.131	1196.1	–	–
299.8 K, m1 = 3.501	1298.5	–	–
299.95 K, m1 = 4.728	1377.8	–	–
300.1 K, m1 = 3.17	1280	–	–
300.15 K, m1 = 4.883	1384.4	–	–
300.3 K, m1 = 4.285	1349	–	–
300.35 K, m1 = 2.493	1223.9	–	–
300.5 K, m1 = 0.9898	1095.4	–	–
300.5 K, m1 = 5.134	1401.4	–	–
300.75 K, m1 = 2.584	1232	–	–
300.75 K, m1 = 4.039	1332.1	–	–
300.85 K, m1 = 4.051	1332.2	–	–
300.9 K, m1 = 0.896	1085.9	–	–
300.95 K, m1 = 0.5931	1056.2	–	–
300.95 K, m1 = 1.262	1119.4	–	–
300.95 K, m1 = 2.793	1247.4	–	–
301 K, m1 = 4.97	1390.1	–	–
301.05 K, m1 = 3.704	1311.3	–	–
301.1 K, m1 = 1.525	1142.4	–	–
301.25 K, m1 = 4.403	1355.4	–	–
301.6 K, m1 = 0.2491	1022.3	–	–
302.1 K, m1 = 3.096	1269.1	–	–
302.1 K, m1 = 3.501	1297.2	–	–
302.25 K, m1 = 2.131	1194.8	–	–
302.25 K, m1 = 3.17	1278.7	–	–
302.3 K, m1 = 4.728	1376.3	–	–
302.4 K, m1 = 4.285	1347.6	–	–
302.55 K, m1 = 0.3405	1030.8	–	–
302.55 K, m1 = 2.493	1222.7	–	–
302.6 K, m1 = 1.827	1169.5	–	–
302.6 K, m1 = 4.883	1382.9	–	–
302.95 K, m1 = 4.039	1330.8	–	–
302.95 K, m1 = 5.134	1399.9	–	–
303.05 K, m1 = 0.0145	996.95	–	–
303.1 K, m1 = 1.694	1156.4	–	–
303.1 K, m1 = 2.584	1230.7	–	–
303.1 K, m1 = 2.793	1246.1	–	–
303.15 K, m1 = 0.0145	–	1509.5	0.8115
303.15 K, m1 = 0.0528	–	1511.9	0.825
303.15 K, m1 = 0.2491	–	1526.5	0.8716
303.15 K, m1 = 0.3405	–	1529.9	–
303.15 K, m1 = 0.5931	–	–	0.9679
303.15 K, m1 = 0.6173	–	1550.7	–
303.15 K, m1 = 0.896	–	1571.2	–
303.15 K, m1 = 0.9898	–	1578.7	1.112
303.15 K, m1 = 1.262	–	1596.4	1.228
303.15 K, m1 = 1.525	–	1617	–
303.15 K, m1 = 1.827	–	1641	1.493
303.15 K, m1 = 2.131	–	1663.8	1.654
303.15 K, m1 = 2.493	–	1686.8	–
303.15 K, m1 = 2.584	–	–	1.969
303.15 K, m1 = 2.793	–	1708.1	–
303.15 K, m1 = 3.096	–	–	2.38
303.15 K, m1 = 3.118	–	1729.1	–
303.15 K, m1 = 3.17	–	1736.9	–
303.15 K, m1 = 3.329	–	–	2.611
303.15 K, m1 = 3.501	–	1753.9	–
303.15 K, m1 = 3.704	–	–	2.998
303.15 K, m1 = 3.757	–	1772.5	–
303.15 K, m1 = 4.039	–	–	3.462
303.15 K, m1 = 4.051	–	1783.6	–
303.15 K, m1 = 4.285	–	1797.4	–
303.15 K, m1 = 4.403	–	1804.5	–
303.15 K, m1 = 4.728	–	–	4.73
303.15 K, m1 = 4.883	–	1830.6	–
303.15 K, m1 = 4.907	–	–	5.225
303.15 K, m1 = 4.97	1388.7	–	–
303.15 K, m1 = 5.134	–	1842.9	–
303.15 K, m1 = 5.282	–	–	6.141
303.25 K, m1 = 0.0528	1001.1	–	–
303.3 K, m1 = 3.704	1309.8	–	–
303.5 K, m1 = 1.525	1141.2	–	–
303.5 K, m1 = 4.403	1353.9	–	–
303.55 K, m1 = 1.262	1118.2	–	–
303.85 K, m1 = 0.5931	1055.1	–	–
303.9 K, m1 = 0.896	1084.7	–	–
304.15 K, m1 = 0.6173	1057.7	–	–
304.25 K, m1 = 3.096	1267.7	–	–
304.35 K, m1 = 3.501	1295.8	–	–
304.35 K, m1 = 3.757	1312.3	–	–
304.55 K, m1 = 2.131	1193.6	–	–
304.55 K, m1 = 3.118	1268.5	–	–
304.55 K, m1 = 4.285	1346.2	–	–
304.55 K, m1 = 4.728	1374.9	–	–
304.8 K, m1 = 4.883	1381.4	–	–
305 K, m1 = 0.2491	1021.1	–	–
305 K, m1 = 1.827	1168.3	–	–
305.05 K, m1 = 2.493	1221.3	–	–
305.2 K, m1 = 4.051	1329.4	–	–
305.25 K, m1 = 4.039	1329.3	–	–
305.3 K, m1 = 1.694	1155.3	–	–
305.35 K, m1 = 2.584	1229.4	–	–
305.5 K, m1 = 2.793	1244.7	–	–
305.55 K, m1 = 3.704	1308.4	–	–
305.8 K, m1 = 0.9898	1093	–	–
305.85 K, m1 = 0.3405	1029.6	–	–
305.95 K, m1 = 1.525	1139.9	–	–
